How the values were obtained:
Format in all cases: cell-based, soya bean (Glycine max (L.) Merrill)
[1] = test system: soya bean embryogenic tissues; assay: Bleaching and growth of soya bean embryogenic tissues on medium with HPPD inhibitor; conditions: tissues transferred for selection on isoxaflutole, D20 medium, 2 mg/l
Description: The same selection method was developed for the HPPD inhibitors, with a D20 medium comprising 2 mg/l of isoxaflutole or 0.5 to 5 mg/l of diketonitriles. The gene for tolerance to HPPD inhibitors which was used as a selection marker is pCH73 or pCH94 represented in FIG. 1. 10 to 15 days prior to the bombardment, the isoxaflutole or the diketonitriles are introduced into the D20 medium, at the abovementioned concentrations, so as to bleach the tissues. After bombardment, the tissues are placed directly in the same D20 medium comprising […] of isoxaflutole or diketonitrile (between 0.5 and 5 mg/l) and transferred into fresh medium every 15 days. After 4 transfers onto the isoxaflutole. green calluses are identified and amplified as described in Example 1. The time required for producing calluses of cells which are competent for the bombardment is 3 and a half months. The selection of the transformed cells (green calluses) occurs approximately 6 months after the initiation of the calluses for the transformation. […] This is due to the fact that the absence of carotenoids, of chlorophyll and of tocopherols is […] to the growth of tissues.

[2] = test system: soya bean proliferative embryogenic tissues; assay: Transformation of soya bean embryogenic tissues by particle bombardment, HPPD inhibitor selection on FNL medium (green calluses); conditions: for mean number of green calluses selected per transformation trial: bleached tissues according to the invention, pooled over both plasmids
Text: In order to improve the selection process according to the invention, an attempt was made to decrease the number of tissue transfers and the time required for producing calluses of competent cells and green calluses selected after bombardment. To this effect, the D20 medium previously used was replaced with a modified FNL medium which allows rapid proliferation of the tissues. The FNL medium has been described by Samoylov, Tucker, Thibaud-Nissen & Parrott in: A liquid-medium-based protocol for rapid regeneration from embryogenic soya bean cultures: Plant Cell Rep, 18: 49-54, 1998. This medium makes it possible to produce tissues ready for bombardment more rapidly, greater embryogeny and shorter transfer cycles. Composition of the FNL medium: Na2EDTA: 37.24 mg/l; FeSO4, 7H2O: 27.84 mg/l; MgSO4, 7H2O: 370 mg/l; MnSO4. H2O: 16.9 mg/l; ZnSO4, H2O: 8.6 mg/l; CuSO4. 7H25O: 0.025 mg/l; CaCl2. 2H2O: 440 mg/l; KI: 0.83 mg/l; CoCl2. 6H2O: 0.025 mg/l; KH2PO4: 170 mg/l; H3BO3: 6.2 mg/l; Na2MoO4. 2H2O: 0.25 mg/l; myo-inositol: 100 mg/l; nicotinic acid: 1 mg/l; pyridoxine-HCl: 1 mg/l; thiamine-HCl: 10 mg/l; (NH4)2SO4: 460 mg/l; KNO3: 2820 mg/l; asparagine: 670 mg/l; 1% sucrose; 2.4-D: 10 mg/l; 0.3% […]; pH 5.7. […] The bombardment of tissues bleached with isoxaflutol according to the invention requires only one transfer of calluses before the selected green calluses are produced, against 4 when using the D20 medium. The time required for producing calluses from cells which are competent for the bombardment is 2 months, the transformed green calluses being selected approximately 3 months after the initiation of the calluses for transformation.

[3] = test system: soya bean proliferative embryogenic tissues; assay: Transformation of soya bean embryogenic tissues by particle bombardment, HPPD inhibitor selection on D20 medium (green calluses); conditions: bleaching before bombardment
Text: The technology used for transforming soya bean has been described by Santarem & Finer: Transformation of soya bean (Glycine max (L.) Merrill) using proliferative embryogenic tissue maintained on semi-solid medium. In Vitro Cell. Dev. Biol. Plant 35 451-455, 1999. It comprises the steps hereinafter.
Immature zygotic embryos (from 3 to 4 mm) are aseptically dissected and placed with the adaxial side upwards in a medium comprising 2.4D (D40).
After culturing for 3 weeks in D40 medium, the cotyledons are transferred onto a D20 medium which comprises essentially the same elements as the D40 medium, with the exception of the 2.4D concentration, which is decreased to […], and the sucrose concentration, which is decreased from 60 g/l to 30 g/l, at pH 5.7.
On this medium, the somatic embryos begin to proliferate in the form of compact aggregates or clumps. The embryogenic clumps are then transferred every two weeks onto a new D20 medium in order to increase the production of tissues. Five or six transfers (approximately 3 months) onto this medium are necessary in order to optimize their competence at transformation. The use of embryogenic tissues which are at an earlier stage produces much poorer results.
Particle bombardment is used for transforming the embryogenic tissues.
Particle preparation: flnctionalized tungsten (M17) particles are prepared according to U.S. Pat. No. 6,068,980. The particles are functionalized by grafting aminated silicones as the vectorization element, and washed in absolute ethanol. 2.5 mg of particles in ethanol are mixed with 3 μg of DNA. After precipitation, the particles are pipetted and used for two shots with a particle gun of the PIG type described by Finer, Vain, Lones and McMullen in: Development of the Particle Inflow Gun for DNA delivery to plant cells. Plant Cell Rep. 11: 323-328, 1992.
Before the bombardment, the tissues are dried under vacuum under a laminar-flow hood for 5 to 10 min, and then placed between two 500 μm screens and bombarded twice.
The same selection method was developed for the HPPD inhibitors, with a D20 medium comprising 2 mg/l of isoxaflutole or 0.5 to 5 mg/l of diketonitriles. The gene for tolerance to HPPD inhibitors which was used as a selection marker is pCH73 or pCH94 represented in FIG. 1.
In order to avoid handling tissues and to gain time, the bombarded calluses are placed on sterile gauze screen fixed with two metal rings which enable direct contact between the embryogenic tissues and the solid medium. The gauze screens are transferred onto fresh media every 15 days until green calluses are observed. It is understood that the principle of callus transfer described above is not limited to soya bean calluses and to selection with hygromycin, but may be used for any method for culturing tissues and cells suspensions which requires frequent changing of culture medium.
10 to 15 days prior to the bombardment, the isoxaflutole or the diketonitriles are introduced into the D20 medium, at the abovementioned concentrations, so as to bleach the tissues. After bombardment, the tissues are placed directly in the same D20 medium comprising […] of isoxaflutole or diketonitrile (between 0.5 and 5 mg/l) and transferred into fresh medium every 15 days. After 4 transfers onto the isoxaflutole. green calluses are identified and amplified as described in Example 1. The time required for producing calluses of cells which are competent for the bombardment is 3 and a half months. The selection of the transformed cells (green calluses) occurs approximately 6 months after the initiation of the calluses for the transformation.

[4] = test system: soya bean proliferative embryogenic tissues; assay: as above; conditions: bleaching after bombardment
[5] = bleaching before bombardment, attempt 1
[6] = bleaching before bombardment, attempt 2
[7] = bleaching before bombardment, attempt 3

Compound | bleaching of the tissues [1] | inhibition of growth of the tissues [1] | mean number of green calluses selected per transformation trial [2] | number of green calluses selected ([2]; bleaching after bombardment, attempt 1) | number of green calluses selected ([2]; bleaching after bombardment, attempt 2) | number of green calluses selected [2, 5] | number of green calluses selected [2, 6] | number of green calluses selected [2, 7] | number of green calluses identified ([3]; attempt 1) | number of green calluses identified ([3]; attempt 2) | number of green calluses identified ([3]; attempt 3) | number of green calluses identified ([4]; attempt 1) | number of green calluses identified ([4]; attempt 2) | number of green calluses identified ([4]; attempt 3) | number of green calluses selected ([2]; bleaching before bombardment, attempt 4)
CS(=O)(=O)c1cc(C(F)(F)F)ccc1C(=O)c1cnoc1C1CC1 [isoxaflutole] | rapidly bleached | without any inhibition of growth being observed |  |  |  |  |  |  |  |  |  |  |  |  | 
pCH73: plasmid carrying gene for tolerance to HPPD inhibitors: sunflower RuBisCo ssu promoter, optimized transit peptide, HPPDW336, NOS terminator; SEQ ID NO 1 |  |  | 1 per shot | 0.25 | 0 | 1 | 1.5 | 0.33 | 0 | 0.5 | 0.25 | 0 | 0 | 0.25 | 
pCH94: plasmid carrying gene for tolerance to HPPD inhibitors: Arabidopsis histone promoter, TEV enhancer, optimized transit peptide, HPPDW336, NOS terminator; SEQ ID NO 2 |  |  | 1 per shot |  |  | 1 | 1 | 0.33 | 0.67 | 1 | 2 | 0.67 | 0.33 | 0.25 | 1.5
